Read-outs that look alike come from different tables or passages of the source.

Results on eleven molecules are retold here after patent publication US4693999A, “Liposomes containing steroid esters” (priority 1984, dated 1987).

A short description of data set [1]: Spleen weight and body weight gain in the Sephadex lung edema test (systemic glucocorticoid action). It is filed as in vivo, Sprague Dawley rats. The arrangement: Body weight gain in rel. to control: unit not given here. To be noted: for Body weight gain in rel. to control: over 20 h; for % inhib. compared to control group, spleen: spleen weight, 20 h after Sephadex; for reduction of body weight gain (in words) / reduction of spleen (in words): summary of Table 1. An excerpt:
(§1) Intratracheal instillation of Sephadex beads into rats leads to bronchial and also to alveolar inflammation. This provokes interstitial lung edema, which increases the lung weight, and the inflammation can be graded as the increase of the lung weight compared to a saline-instilled control group. The lung edema formation can be counteracted by pretreatment with glucocorticoids, preferably by local administration as intratracheal instillation or as inhalation. Ideally an anti-inflammatory action should be obtained only at the site of glucocorticoid application in the lung, but not in the rest of the body as this in long term treatment can lead to therapy limiting systemic side effects.
(§2) Sprague Dawley rats (225 g) were slightly anaesthetized with ether and the glucocorticoid test preparation (in liposomes suspended in saline) in a volume of 0.5 ml/kg was instilled into just the left lung lobe. Two h later a suspension of Sephadex (5 mg/kg in a volume of […] was instilled in the trachea well above the bifurcation so that the suspension reached both the left and right lung lobes. Twenty h later the rats were killed and the left and right lung lobes dissected out and weighed separately. Also the spleen weight and the body weight gain over the 20 h were determined. Control groups got vehicle instead of glucocorticoid preparation and saline instead of Sephadex suspension to determine the weight of non-drug treated Sephadex edema and the normal lung weight as well as the normal spleen weight and body weight gain.
As stated above an ideal glucocorticoid preparation should have a very high glucocorticoid activity at the site of application in lung, but with low activity outside this area. Therefore, in the selected model an optimal preparation should more or less completely block the edema in the locally pretreated left lung lobe, but have much less activity in the right lung half and no significant inhibitory action on the spleen weight and the body weight gain. It has been considered more important to search for a high degree of separation between the local activity (exemplified with the left lung) to the other activities than to search for a high absolute potency (high activity per mg drug) for the action in the left lung. In the test protocol used, doses were selected leading to a more or less complete block of the edema in the left lung and at these dose levels the extent of the other activities was estimated. At the selected dose 7-9 rats were tested in parallel. Mean±s.e.m. was calculated and compared with Student's t-test to the results of the corresponding Sephadex control group.

In data set [2] the test system is Sephadex-included lung edema. The experiment in a line: Sephadex-induced lung edema in rats (anti-inflammatory effect), glucocorticoid in liposomes instilled into left lung lobe. It is filed as in vivo, Sprague Dawley rats. To be noted: for inhibition in vivo at 3.35 µmol/kg / inhibition in vivo at 0.335 µmol/kg / inhibition in vivo at 0.0335 µmol/kg / inhibition in vivo at 0.1 µmol/kg: Rattus norvegicus; for inhibition in vivo at 3.35 µmol/kg: 3350 nmol/kg instilled in left lung lobe; for reduction of edema in left lung / protection of left lung / block of left lung edema (in words) / activity in the other lung half (in words): summary of Table 1; for reduction of edema in left lung / protection of left lung / block of left lung edema (in words): locally treated left lung; for activity in the other lung half (in words): right lung compared with left; for inhibition in vivo at 0.0335 µmol/kg: 33.5 nmol/kg instilled in left lung lobe; for inhibition in vivo at 0.1 µmol/kg: 100 nmol/kg instilled in left lung lobe.
From the text: as §1
The differentiation between glucocorticoid actions in the treated lung region and outside this area can be tested in the following way.
as §2
As stated above an ideal glucocorticoid preparation should have a very high glucocorticoid activity at the site of application in lung, but with low activity outside this area. Therefore, in the selected model an optimal preparation should more or less completely block the edema in the locally pretreated left lung lobe, but have much less activity in the right lung half and no significant inhibitory action on the spleen weight and the body weight gain. […] In the test protocol used, doses were selected leading to a more or less complete block of the edema in the left lung and at these dose levels the extent of the other activities was estimated. At the selected dose 7-9 rats were tested in parallel.

The mark [3] stands for this setting: 3350 nmol/kg instilled in left lung lobe, NS = not significant.
Where [4] appears, read: liposomes in saline, 2 h before Sephadex, 20 h readout, locally treated lobe, read-out: % inhib. compared to control group, left lobe.
[5] abbreviates: liposomes in saline, 2 h before Sephadex, 20 h readout, untreated lobe, read-out: % inhib. compared to control group, right lobe.
Where [6] appears, read: 335 nmol/kg instilled in left lung lobe, NS = not significant.
[7] abbreviates: 20 h, read-out: % inhib. compared to control group, left lobe.
Setting [8] is: 20 h, read-out: % inhib. compared to control group, right lobe.
Where [9] appears, read: 335 nmol/kg instilled in left lung lobe, liposomes in saline, 2 h before Sephadex, 20 h readout, locally treated lobe, read-out: % inhib. compared to control group, left lobe.
Setting [10] is: 335 nmol/kg instilled in left lung lobe, liposomes in saline, 2 h before Sephadex, 20 h readout, untreated lobe, read-out: % inhib. compared to control group, right lobe.
Setting [11] is: 33.5 nmol/kg instilled in left lung lobe, NS = not significant.
The mark [12] stands for this setting: 100 nmol/kg instilled in left lung lobe.

Regarding `CCCCCCCCCCCCCCCC(=O)OCC(=O)[C@@]1(OC(=O)CC)[C@@H](C)C[C@H]2[C@@H]3CCC4=CC(=O)C=C[C@]4(C)[C@@]3(Cl)[C@@H](O)C[C@@]21C` [Beclomethasone-21-palmitate-17-propionate], in data set [1] (setting [3]), the “Body weight gain in rel. to control” value was -3.1. Also, the “% inhib. compared to control group, spleen” value in data set [1] (setting [3]) is given as 5%. Also, the inhibition in vivo at 3.35 µmol/kg turned out to be 87% in data set [2] (setting [4]) and 47% in data set [2] (setting [5]). Besides, the “reduction of edema in left lung / protection of left lung” value in data set [2] was 87%.

With `CCCCCCCCCCCCCCCC(=O)OCC(=O)[C@@]1(O)[C@@H](C)C[C@H]2[C@@H]3CCC4=CC(=O)C=C[C@]4(C)[C@@]3(F)[C@@H](O)C[C@@]21C` [Betamethasone-21-palmitate], the “Body weight gain in rel. to control” value in data set [1] (setting [6]) is on record as 0.2. The “% inhib. compared to control group, spleen” value in data set [1] (setting [6]) worked out at 7%. The values for the inhibition in vivo at 0.335 µmol/kg in data set [2] (setting [7]) and in data set [2] (setting [8]) were 109% and -5%, respectively.

For the molecule `CCCCCCCCCCCCCCCC(=O)OCC(=O)[C@@]12OC(CCC)O[C@@H]1C[C@H]1[C@@H]3CCC4=CC(=O)C=C[C@]4(C)[C@H]3[C@@H](O)C[C@@]12C` (some centres unmarked) [Budesonide-21-palmitate], in data set [1] (setting [6]), the “Body weight gain in rel. to control” value is -1.4 and the “% inhib. compared to control group, spleen” value is recorded as 4%. In data set [2] (setting [9]), the inhibition in vivo at 0.335 µmol/kg was found to be 100%. For the same molecule, the inhibition in vivo at 0.335 µmol/kg in data set [2] (setting [10]) is 37%.

As to `CCCCC(=O)OCC(=O)[C@@]12OC(CCC)O[C@@H]1C[C@H]1[C@@H]3CCC4=CC(=O)C=C[C@]4(C)[C@H]3[C@@H](O)C[C@@]12C` (some centres unmarked) [Budesonide-21-valerate], in data set [1] (setting [6]), the “Body weight gain in rel. to control” value is given as -0.8 and the “% inhib. compared to control group, spleen” value was -1%. The inhibition in vivo at 0.335 µmol/kg in data set [2] (setting [9]) was found to be 21%. Besides, the inhibition in vivo at 0.335 µmol/kg in data set [2] (setting [10]) amounted to 22%. Besides, the “reduction of edema in left lung / protection of left lung” value in data set [2] is “up to 38%”.

On to `CCCC1O[C@@H]2C[C@H]3[C@@H]4CCC5=CC(=O)C=C[C@]5(C)[C@H]4[C@@H](O)C[C@]3(C)[C@]2(C(=O)CO)O1` (some centres unmarked) [Budesonide], for which the “Body weight gain in rel. to control” value in data set [1] (setting [6]) came out at 1.6. For the same molecule, the figures for the inhibition in vivo at 0.335 µmol/kg in data set [2] (setting [9]) and in data set [2] (setting [10]) were 38% and 30%, respectively. Further, the “reduction of edema in left lung / protection of left lung” value in data set [2] is “up to 38%”.

In the case of `CCCCCCCCCCCCCCCC(=O)OCC(=O)[C@@]1(OC(=O)CC)[C@H](C)C[C@H]2[C@@H]3CCC4=CC(=O)C=C[C@]4(C)[C@@]3(F)[C@@H](O)C[C@@]21C` [Dexamethasone-21-palmitate-17-propionate], in data set [1] (setting [6]), the “Body weight gain in rel. to control” value worked out at 1.0 and the “% inhib. compared to control group, spleen” value is reported as 3%. The inhibition in vivo at 0.335 µmol/kg in data set [2] (setting [9]) amounted to 104%. Besides, in data set [2] (setting [10]), the inhibition in vivo at 0.335 µmol/kg was determined as 44%.

Turning to `CCCCCCCCCCCCCCCC(=O)OCC(=O)[C@@]1(O)[C@H](C)C[C@H]2[C@@H]3CCC4=CC(=O)C=C[C@]4(C)[C@@]3(F)[C@@H](O)C[C@@]21C` [Dexamethasone-21-palmitate], the “Body weight gain in rel. to control” value in data set [1] (setting [6]) was -10.8. In data set [1], the “reduction of body weight gain (in words)” value is “significant reduction of body weight gain”; the “reduction of spleen (in words)” value was “significant reduction of body weight gain and to spleen”. The inhibition in vivo at 0.335 µmol/kg in data set [2] (setting [7]) was 127%. The inhibition in vivo at 0.335 µmol/kg in data set [2] (setting [8]) worked out at 109%. In addition, in data set [2], the “block of left lung edema (in words)” value is “completely blocked the left lung edema” and the “activity in the other lung half (in words)” value is “as high activity in the other lung half”.

For the molecule `CCCCCCCCCCCCCCCC(=O)OCC(=O)[C@@]1(OC(=O)CC)[C@H](C)C[C@H]2[C@@H]3C[C@H](F)C4=CC(=O)C=C[C@]4(C)[C@@]3(F)[C@@H](O)C[C@@]21C` [Flumethasone-21-palmitate-17-propionate], in data set [1] (setting [11]), the “Body weight gain in rel. to control” value turned out to be 2.0 and the “% inhib. compared to control group, spleen” value is listed as -1%. For the same molecule, the inhibition in vivo at 0.0335 µmol/kg in data set [2] (setting [4]) was determined as 108%. In addition, the inhibition in vivo at 0.0335 µmol/kg in data set [2] (setting [5]) turned out to be 43%.

Regarding `CCCCCCCCCCCCCCCC(=O)OCC(=O)[C@@]12OC(C)(C)O[C@@H]1C[C@H]1[C@@H]3C[C@H](F)C4=CC(=O)C=C[C@]4(C)[C@H]3[C@@H](O)C[C@@]12C` [Flunisolide-21-palmitate], in data set [1] (setting [11]), the “Body weight gain in rel. to control” value is recorded as -2.6 and the “% inhib. compared to control group, spleen” value is given as 8%. For the same molecule, in data set [2] (setting [4]), the inhibition in vivo at 0.0335 µmol/kg was determined as 133%. Moreover, the inhibition in vivo at 0.0335 µmol/kg in data set [2] (setting [5]) is 44%.

With `CCCCCCCCCCCCCCCC(=O)OCC(=O)[C@@]12OC(C)(C)O[C@@H]1C[C@H]1[C@@H]3C[C@H](F)C4=CC(=O)C=C[C@]4(C)[C@@]3(F)[C@@H](O)C[C@@]12C` [Fluocinolone acetonide-21-palmitate], in data set [1] (setting [12]), the “Body weight gain in rel. to control” value is recorded as -4.8 and the “% inhib. compared to control group, spleen” value is reported as 15%. For the same molecule, in data set [1], the “reduction of body weight gain (in words)” value is listed as “significant reduction of body weight gain”; the “reduction of spleen (in words)” value is “significant reduction of body weight gain and to spleen”. Further, the inhibition in vivo at 0.1 µmol/kg in data set [2] (setting [4]) was determined as 117%. Also, the inhibition in vivo at 0.1 µmol/kg in data set [2] (setting [5]) turned out to be 95%. Moreover, in data set [2], the “block of left lung edema (in words)” value is “completely blocked the left lung edema” and the “activity in the other lung half (in words)” value is recorded as “as high activity in the other lung half”.

`CCCCCCCCCCCCCCCC(=O)OCC(=O)[C@@]1(O)CC[C@H]2[C@@H]3CCC4=CC(=O)CC[C@]4(C)[C@H]3[C@@H](O)C[C@@]21C` [Hydrocortisone-21-palmitate]: the “Body weight gain in rel. to control” value in data set [1] (setting [6]) is given as -1. Moreover, the values for the inhibition in vivo at 0.335 µmol/kg in data set [2] (setting [9]) and in data set [2] (setting [10]) were -13% and -7%, respectively. Further, the “reduction of edema in left lung / protection of left lung” value in data set [2] is given as “up to 38%”.
